This note sets out measurements from patent US20050095226A1, “Down-regulation of DNA repair to enhance sensitivity to p53-mediated suppression” (priority 1996, published 2005).

“Also recorded” adds a separate entry of the source.

Experiment [1] has as its system 9L rat glioblastoma cells. Nature of the experiment: Cell viability assay (MTS) in 9L rat glioblastoma cells. It is filed as cell-based. Here is the method: (§1) T98G glioblastoma cells were obtained from ATCC and cultured at 37° C. 10% CO2 in Dulbecco's Modified Eagles Medium supplemented with 10% newborn calf serum. 9L rat glioblastoma cells were obtained from Carol Cruse (University of Colorado) and cultured at 37° C. in 10% CO2 in Dulbecco's Modified Eagles Medium supplemented with 10% fetal Calf serum. The T98G-LHCmjun clone (termed T98G mutant jun or T98G-mjun), as well as control empty vector modified clone (termed T98GLHCX) were obtained from Dr. Dan Mercola (Sidney Kimmel Cancer Center) and were cultured in the same way as were T98G cells except that 100 μg/ml hygromycin was added to the culture medium. The 98G-mjun is stably modified to express a dominant negative mutant of c-jun (the mutant was obtained by site-directed mutagenesis by M. Karin and colleagues and is described by Smeal et al. (1991). Mutant jun has ser→ala substitutions at positions 63 and 73, two sites of DNA damage-induced phosphorylation, and can therefore not be phosphorylated at these sites. 9LpCEPp53 (or 9LpCEP4, control) were cultured in the same way at 9L cells except that 50 μg/ml hygromycin was added to the medium.
Rat 9L glioblastoma cells express p53 mutated at codon 277 (J. Neuroonal. 19:259-268, 1994.) 9LpCEPp53 (or 9LpCEP4) were obtained by transducing 5×10^5 9L cells with 15 μG of pCEPp53 (or pCEP4) using Lipofectamine (GIBCO/BRL, Gaithersberg, Md.) following the manufacturer's instructions. Clones were selected in 50 μg/ml hygromycin and characterized for wild-type p53 expression by immunoprecipitation (immunoprecipitation procedure described in: Gjerset et al., Molec. Carcinog. 5:190-198, 1992) using the 1801 anti-p53 antibody specific for human p53 (p-Ab-2, Oncogene Science, Uniondale, N.Y.), and by the PG13 functional assay described above. pCEPp53 was derived by inserting the human wild-type p53 cDNA into the multicloning site of pCEP4.
(§2) Cells were infected when they were at 80% confluence with either 100 pfu per cell overnight in DMEM containing 2% heat-inactivated FBS (for T98G and clones derived from T98G) or at 50 pfu per cell for 2 hours (9L cells). The efficiency of infection was determined by staining a sample of the β-gal virus-infected cells at 48 hrs post-infection as described (Dannenerg and Saga, 1981).
(§3) Viability assays were performed in 96 wells plates 6-7 days after plating. Cells were plated at a starting cell number per well of 1000. Triplicate or quadruplicate wells were set up for each assay point. […] For cisplatin treatment, triplicate or quadruplicate wells were exposed for 1 hour to various concentrations of cisplatin (Platinol™), and then incubated in the absence of cisplatin for 7 days, during which time control (untreated) wells were in exponential phase growth. Viable cell number was based on the bioconversion of the tetrazolium compound, MTS, into formazan (Promega, Celltiter96™Aqeous), as determined by absorbance at […] using an ELISA reader. For 3-aminobenzamide (ABZ) treatment, triplicate or quadruplicate wells were treated with either 5 mM ABZ or 10 mM ABX. Fresh ABZ was added every two days and viability was scored as described above at 6 days. Assays involving the synthetic retinoid SR11220 were performed in the presence of charcoal-treated fetal bovine serum. Medium was replaced every two days with medium containing fresh retinoid.

The subject of the next experiment is T98G parental cells. In words: PCR stop assay for DNA damage (2.7 Kb HPRT fragment) in T98G parental cells. The format is cell-based, human. Here is the method: (§4) This assay has been described (Oshita and Saijo, 1994; Jannerwein and Eastman, 1991). The assay is based on the principle that every DNA lesion, including adducts produced by cisplatin, can potentially block the progression of the Taq polymerase and decrease the yield of a given PCR™ product. […] Furthermore, when whole cells are incubated with varying levels of cisplatin, the degree of inhibition of amplification of a specific PCR™ product from DNA purified from these cells, correlates closely with the amount of DNA damage (level of DNA platination) as measured by atomic adsorption (Jannerwein and Eastman, 1991). The following primers (used by Oshita and Saijo, 1994) which amplify a 2.7 Kb fragment of the human hypoxanthine phosphoribosyl transferase (HPRTase) gene were used:
(§5) As an internal control for the efficiency of the PCR™ reaction, a nested 5′ primer which amplifies a 150 bp fragment of the same gene was used:
At the cisplatin levels used to treat the cells, damage to the smaller fragment is undetectable. […] In some experiments, 3-aminobenzamide (10 mM), an inhibitor of ADP ribosylation and DNA repair (see Din et al., 1992) was added during the 6 hour recovery period. […] DNA was washed with 70% EtOH to remove salt, followed by 100% EtOH dried briefly, and resuspended at 1 mg/ml in sterile H2O. Quantitative PCR™ was performed in 50 μl aliquots using 0.5 μg DNA, 50 pmol of forward primer for 2.7 Kb fragment, 50 pmol reverse primer, and 5 pmol of forward primer for the 150 base fragment, 50 mM KCL, 10 nmM Tris pH 8.3, 1.5 mM MgCl2, […], 0.5 μl Tac polymerasse (Perkin Elmer), and 1 pmol radioactively end-labeled reverse primer (labeled with y-^32P-dATP). Amplification conditions were as follows: 1 cycle: 94° C., 1′30; 25 cycles: 94° (1 min)-57° (1 min)-70° (2′30″); 1 cycle:94° (1 min)-57° (1 min)-70° (7′). […] The gel was vacuum-dried for two hours onto filter paper and the PCR™-amplified 2.7 Kb and 150 bp bands were quantitated using an Ambis4000 Radioanalytic Imaging system (Ambis, Inc., San Diego, Calif.).

In the next experiment the test system is T98G glioblastoma cells. In words: Cell viability assay (MTS) in T98G glioblastoma cells. It is filed as cell-based. Conditions: for cell viability: 7 days post-treatment. How it is done:
as §1, §2, §3

For a further experiment, the system named is T98G-mutant jun cells. In words: PCR stop assay for DNA damage (2.7 Kb HPRT fragment) in T98G-mutant jun cells. The format is cell-based, human. Conditions: varying concentrations. Here is the method: as §4, §5
At the cisplatin levels used to treat the cells, damage to the smaller fragment is undetectable. […] In some experiments, 3-aminobenzamide (10 mM), an inhibitor of ADP ribosylation and DNA repair (see Din et al., 1992) was added during the 6 hour recovery period. […] The gel was vacuum-dried for two hours onto filter paper and the PCR™-amplified 2.7 Kb and 150 bp bands were quantitated using an Ambis4000 Radioanalytic Imaging system (Ambis, Inc., San Diego, Calif.).

Another experiment deals with T47D breast cancer cells. In words: Cell viability assay (MTS) in T47D breast cancer cells. The format is cell-based. The settings on record: for cell viability: one hour cisplatin, various concentrations, 7 days post-infection; for viability: 7 days. Here is the method: Cells were infected when they were at 80% confluence with either 100 pfu per cell overnight in DMEM containing 2% heat-inactivated FBS (for T98G and clones derived from T98G) or at 50 pfu per cell for 2 hours (9L cells).
as §3

Regarding `NC(=O)c1cccc(N)c1` [3-aminobenzamide], the viability result in experiment [1] (9L cells stably expressing human wild-type p53 (pCEPp53), 5 mM 3-aminobenzamide for 6 days) was “low viability”; in experiment [1] (9L cells stably expressing human wild-type p53 (pCEPp53), 10 mM 3-aminobenzamide for 6 days), “even lower viability”. In experiment [1] (9L cells stably expressing only control vector pCEP4, both 5 mM and 10 mM 3-aminobenzamide, 6 days), the growth inhibition entry is recorded as “resistant to growth inhibition”. For the same compound, in the experiment on T98G parental cells (10 mM 3-aminobenzamide, six hours post treatment with varying concentrations of cisplatin), the “DNA damage (percentage of control PCR signal)” value was “significant DNA damage”.
With `N.N.[Cl][Pt][Cl]` [cisplatin], in the experiment with T98G glioblastoma cells (T98G cells infected with wild-type p53 adenovirus, one hour cisplatin, various concentrations, 7 days post-infection), the “cell growth / viability” value is listed as “growth suppression in a dose dependent manner”. Besides, the growth rate entry with T98G glioblastoma cells (T98G cells infected with βgal adenovirus, increasing levels of cisplatin, 7 days post-infection) is “slightly reduce growth rate”. Further, the cell viability entry was “reduced in a dose dependent manner” with T98G glioblastoma cells (T98G cells stably modified with wild-type p53 vector pLp53RNL, one hour cisplatin, increasing doses); “more resistant” in the experiment with T98G glioblastoma cells (control T98G cells stably modified with vector only, pLNRL, one hour cisplatin); “significantly reduced the viability” in experiment [1] (9L cells stably modified with wild-type p53 vector pCEPp53, compared to control vector pCEP4, one hour cisplatin, various concentrations, 7 days post-treatment); “decreased with increasing doses of cisplatin” with T47D breast cancer cells (T47D cells infected with wild-type p53 adenovirus, two days post-infection); “significantly more refractory” with T47D breast cancer cells (control T47D cells infected with βgal-adenovirus). The viability entry in experiment [1] (9L cells infected with p53 adenovirus, compared to βgal adenovirus, 50 μM cisplatin one day later, measured seven days after cisplatin) is recorded as “significant decrease in viability”; in the experiment with T47D breast cancer cells (T47D cells infected with βgal adenovirus control, 10^−8 M SR11220, 10 μM cisplatin or combination), “not reduced significantly”; in the experiment on T47D breast cancer cells (p53 adenovirus infected T47D cells, 10 μM cisplatin, 1 hour exposure), “an even greater effect on the reduction in viability”. In addition, the “DNA damage (percentage of control PCR signal)” value with T98G parental cells (six hours after 1.5 hour cisplatin treatment, no 3-aminobenzamide) is reported as “partially reduced; also recorded: no significant DNA damage remained”; with T98G parental cells (zero hours after 1.5 hour treatment with varying concentrations of cisplatin), “considerable DNA damage”; in the experiment with T98G-mutant jun cells (zero hour after 1.5 hours cisplatin), “high levels of DNA damage”. In the experiment on T98G-mutant jun cells (six hours after 1.5 hours cisplatin), the “repair of DNA damage” value was “not able to be repaired”.
